Measured values taken from PubChem BioAssay (NCI).
Where “and” joins values, the source holds several entries; their conditions need not be identical. Equal entries are not always repeated.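 These data come from cells grown in 96-well plates and exposed to compound for 48 hours at five concentrations. GI50 = concentration required for 50% inhibition of growth. TGI is the concentration that stops growth completely.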

Columns and labels:
Assay in all cases: inhibition of tumour cell growth, NCI panel, 48 h
786-0 renal = system: 786-0 renal
SW-620 colon = system: SW-620 colon
SNB-19 CNS = system: SNB-19 CNS
OVCAR-5 ovarian = system: OVCAR-5 ovarian
NCI/ADR-RES ovarian = system: NCI/ADR-RES ovarian
COLO 205 colon = system: COLO 205 colon
UACC-257 melanoma = system: UACC-257 melanoma
OVCAR-3 ovarian = system: OVCAR-3 ovarian
MDA-N = system: MDA-N

SMILES | GI50 (786-0 renal) | TGI (786-0 renal) [µM] | GI50 (SW-620 colon) | TGI (SW-620 colon) [µM] | GI50 (SNB-19 CNS) | TGI (SNB-19 CNS) [µM] | GI50 (OVCAR-5 ovarian) [µM] | TGI (OVCAR-5 ovarian) [µM] | GI50 (NCI/ADR-RES ovarian) | TGI (NCI/ADR-RES ovarian) [µM] | GI50 (COLO 205 colon) | TGI (COLO 205 colon) | GI50 (UACC-257 melanoma) [µM] | TGI (UACC-257 melanoma) [µM] | GI50 (OVCAR-3 ovarian) [µM] | TGI (OVCAR-3 ovarian) [µM] | TGI (MDA-N) [µM]
O=C1c2cc(F)ccc2-c2c1c1ccc([N+](=O)[O-])cc1c(=O)n2CCCBr | 1.96 µM | 9.31 | 10.2 µM | > 100 | 8.13 µM | > 100 | 65.5 | > 100 | 4.37 µM | 41.3 | 46.8 µM | > 100 µM | 13.1 | 82.6 | 46.8 | > 100 | –
CN1C(=O)C2(c3ccccc31)C1CC3C(CO1)C1C2C3(CO)CN1C#N (centres undefined) | – | > 100 | – | – | – | > 100 | – | > 100 | – | > 100 | – | > 100 µM | – | > 100 | – | > 100 | > 100
CCOC(=O)c1cc(NS(=O)(=O)c2ccc(C)cc2)cc(C(=O)OCC)c1 | 53.7 µM | > 100 | > 100 µM | > 100 | 76.1 µM | > 100 | 37.9 | > 100 | 23.6 µM | > 100 | 36.1 µM | > 100 µM | 45.5 | > 100 | 34.5 | > 100 | –
COC(=O)[C@@H](C)C[C@H](Cc1ccccc1)NC(=O)c1csc([C@@H](C[C@H](C(C)C)N(C)C(=O)[C@@H](NC(=O)[C@H]2CCCN2C)C2CC2)OC(C)=O)n1 | 0.00479 µM and 0.0025 µM | > 25 | 0.000508 µM and 0.0025 µM | > 25 | 0.00125 µM and 0.0025 µM | > 25 | – | > 25 | 0.276 µM and 0.262 µM | > 25 | 0.000874 µM and < 0.0025 µM | 0.0117 µM and < 0.0025 µM | 0.22 | – | 0.000198 | 0.00695 | –
COc1ccc(-c2cn(-c3cc(OC)c(OC)c(OC)c3)c(=O)[nH]2)cc1OC | > 100 µM | > 100 | > 100 µM | > 100 | > 100 µM | > 100 | > 100 | > 100 | > 100 µM | > 100 | > 100 µM | > 100 µM | > 100 | > 100 | > 100 | > 100 | –
O=c1oc2ccc(Br)cc2c(=O)n1-c1ccc(Cl)cc1F | 2.38 µM | 7.11 | 1.84 µM | 11.2 | 0.506 µM | > 100 | 3.84 | > 100 | 1.41 µM | 6.95 | 2.99 µM | 9.93 µM | 0.915 | 5.59 | 0.641 | 8.85 | –
COc1ccc2nc3cccc([N+](=O)[O-])c3c(NC(C)CN(C)C)c2c1 (centres undefined) | 2.22 µM | 7.12 | 1.9 µM | 12.5 | 2.63 µM | 7.91 | 1.73 | 5.21 | 2.92 µM | 13 | 1.84 µM | 6.89 µM | 2.67 | 7.02 | 3.15 | 10.4 | –
N#CC1=C(N)Oc2c(sc3c(Br)cccc23)C1c1ccc(Cl)cc1 (centres undefined) | 0.663 µM | 2.71 | 0.408 µM | > 100 | 0.822 µM | 12.8 | 1.91 | 5.98 | 0.332 µM | 1.35 | 0.774 µM | 2.72 µM | 1.73 | 22.7 | 0.272 | 0.749 | –
COc1ccc(-c2[nH]nc(N)c2-c2cc(OC)c(OC)c(OC)c2)cc1 | 0.0663 µM | > 58.3 | 0.0387 µM | > 100 | 0.519 µM | > 100 | 0.0659 | > 100 | 0.0283 µM | – | 0.0331 µM | 0.16 µM | 8.03 | > 100 | 0.0261 | 0.853 | –
O=C(O)c1cn(C2CC2)c2cc(N3CCN(Cc4c(O)ccc5ccccc45)CC3)c(F)cc2c1=O | 2.58 µM | 7.05 | 4.12 µM | > 100 | 91.5 µM | > 100 | > 100 | > 100 | 11.4 µM | > 100 | 5.13 µM | > 100 µM | > 100 | > 100 | 3.4 | 22.6 | –
NCCSC(c1ccccc1)(c1ccccc1)c1ccccc1 | 1.22 µM | 12.1 | 0.558 µM | 2.48 | 5.36 µM | 20.1 | 1.92 | 6.95 | 1.86 µM | 5.71 | 0.435 µM | 1.69 µM | 1.13 | 2.68 | 1.52 | 6.13 | –
NC(N)=Nc1ccc(/C=C2\C=Cc3ccccc32)cc1 | 3.22 µM | 14.8 | 1.83 µM | 3.82 | 6.32 µM | 32.5 | 2.61 | 6.77 | 4.54 µM | 18.8 | 1.99 µM | 3.7 µM | 4.99 | 18.3 | 3.05 | 8.93 | –
CCCN(CCC)c1ccc(C=O)c(C)c1 | 43.9 µM | > 100 | 45.9 µM | > 100 | 60.9 µM | > 100 | 58.5 | > 100 | 36.1 µM | > 100 | 29.1 µM | > 100 µM | 19.2 | > 96.3 | 35.4 | > 100 | –
Cc1sc2c(c1C)C(c1ccc(Cl)cc1)=N[C@@H](CC(=O)NCCCN1CCN(C)CC1)c1nnc(C)n1-2 | 5.48 µM | > 100 | > 100 µM | > 100 | 0.987 µM | > 100 | 1.99 | > 100 | > 100 µM | > 100 | 0.0995 µM | > 100 µM | 3.26 | > 100 | 1.33 | > 100 | –
Nc1ncn([C@H]2C[C@H](OP(=O)(O)OC[C@H]3O[C@@H](n4cnc5c(=O)[nH]c(N)nc54)C[C@@H]3O)[C@@H](CO)O2)c(=O)n1 | 71.8 µM | > 100 | > 100 µM | > 100 | > 100 µM | > 100 | > 100 | > 100 | > 100 µM | > 100 | 41.4 µM | > 100 µM | > 100 | > 100 | > 100 | > 100 | –
